This note sets out measurements from patent US9902722B2, “Biaryl kinase inhibitors” (BRISTOL-MYERS SQUIBB COMPANY, priority 2014, dated 2018).

A word on the IC50: it is the midpoint of a concentration-inhibition curve.

Chain of GST-Xa-hAAK1 (Q2M2I8 whole entry): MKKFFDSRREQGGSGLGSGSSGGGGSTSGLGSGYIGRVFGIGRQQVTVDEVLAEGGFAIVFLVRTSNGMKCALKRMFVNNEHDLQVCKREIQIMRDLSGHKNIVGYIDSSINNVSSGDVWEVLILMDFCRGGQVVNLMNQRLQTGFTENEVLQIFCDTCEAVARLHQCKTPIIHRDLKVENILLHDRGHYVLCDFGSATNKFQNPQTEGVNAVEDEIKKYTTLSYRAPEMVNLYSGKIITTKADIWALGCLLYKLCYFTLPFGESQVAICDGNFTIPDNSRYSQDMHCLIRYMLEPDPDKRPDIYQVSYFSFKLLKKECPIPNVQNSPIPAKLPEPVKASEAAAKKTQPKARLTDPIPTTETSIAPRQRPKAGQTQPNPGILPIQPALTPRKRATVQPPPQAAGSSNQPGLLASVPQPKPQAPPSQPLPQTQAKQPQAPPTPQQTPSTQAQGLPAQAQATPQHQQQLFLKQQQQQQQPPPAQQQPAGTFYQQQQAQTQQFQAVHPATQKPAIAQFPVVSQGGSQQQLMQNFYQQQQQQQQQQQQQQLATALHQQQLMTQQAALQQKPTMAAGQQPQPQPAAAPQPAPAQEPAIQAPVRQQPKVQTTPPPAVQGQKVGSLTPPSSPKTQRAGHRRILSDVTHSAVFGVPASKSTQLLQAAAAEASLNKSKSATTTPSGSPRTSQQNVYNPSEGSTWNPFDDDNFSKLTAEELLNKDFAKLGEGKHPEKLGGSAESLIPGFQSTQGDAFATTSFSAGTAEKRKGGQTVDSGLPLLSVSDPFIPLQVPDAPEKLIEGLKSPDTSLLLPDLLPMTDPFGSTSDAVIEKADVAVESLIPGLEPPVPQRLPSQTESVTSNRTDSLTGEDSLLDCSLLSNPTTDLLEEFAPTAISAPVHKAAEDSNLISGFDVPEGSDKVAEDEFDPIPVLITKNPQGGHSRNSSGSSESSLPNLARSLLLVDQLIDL

This experiment addresses GST-Xa-hAAK1 (Homo sapiens (Human), UniProt Q2M2I8). The experiment can be described thus: AAK1 Kinase Assay.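 Further: each compound tested across an eleven-point concentration series, with IC50 obtained through non-linear regression fitting.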 Format: biochemical. The conditions noted are these: bacterially expressed GST-Xa-hAAK1 3.5 nM; ATP 22 μM; peptide substrate 1.5 μM; 3 hours at room temperature; Caliper LabChip 3000.
Protocol: The assays were performed in U-bottom 384-well plates. […] The reactions were initiated by the combination of bacterially expressed, GST-Xa-hAAK1 with substrates and test compounds. The reactions were incubated at room temperature for 3 hours and terminated by adding 60 μl of 35 mM EDTA buffer to each sample. […] Compounds were dissolved at 10 mM in dimethylsulfoxide (DMSO) and evaluated at eleven concentrations. IC50 values were derived by non-linear regression analysis.
Compound `Cc1cc(-c2ccc(OC[C@@](C)(N)CC(C)C)c(C#N)c2)c(F)cn1` [Example 105, (S)-2-((2-amino-2,4-dimethylpentyl)oxy)-5-(5-fluoro-2-methylpyridin-4-yl)benzonitrile] showed an IC50 of 0.72 nM.

For the compound `Cc1nc(-c2ccnc3ccccc23)ccc1OC[C@@](C)(N)CC(C)C` [Example 81, (S)-2,4-dimethyl-1-((2-methyl-6-(quinolin-4-yl)pyridin-3-yl)oxy)pentan-2-amine], the IC50 was 7.8 nM.

Compound `CC(C)C[C@H](N)COc1ccc(-c2ccnc3ccccc23)cc1-c1ccno1` [Example 110, (S)-1-(2-(isoxazol-5-yl)-4-(quinolin-4-yl)phenoxy)-4-methylpentan-2-amine] had an IC50 of 3.5 nM.

`Cc1cc(-c2ccnc3ccc(Cl)cc23)ncc1OC[C@@](C)(N)CC(C)C` [Example 229, (S)-1-((6-(6-chloroquinolin-4-yl)-4-methylpyridin-3-yl)oxy)-2,4-dimethylpentan-2-amine] displayed an IC50 of 1 nM.

In the case of `Cc1nccc(-c2ccc(OC[C@@](C)(N)CC(C)C)c(C(F)F)n2)c1F` [Example 160, (S)-1-((6-(difluoromethyl)-3′-fluoro-2′-methyl-[2,4′-bipyridin]-5-yl)oxy)-2,4-dimethylpentan-2-amine], the IC50 came out at 0.8 nM.

`COC(=O)Nc1cc(-c2ccc(OCC(C)(N)CC(C)C)c(C)c2C)ccn1` (stereo not shown) [Example 31, methyl (4-(4-((2-amino-2,4-dimethylpentyl)oxy)-2,3-dimethylphenyl)pyridin-2-yl)carbamate] yielded an IC50 of 4.5 nM.

`Cc1cc(-c2ccc(OC[C@@](C)(N)CC(C)C)c(C)n2)ccn1` [Example 65, (S)-1-((2′,6-dimethyl-[2,4′-bipyridin]-5-yl)oxy)-2,4-dimethylpentan-2-amine]: the IC50 turned out to be 42 nM.

`Cc1ccc2c(-c3cnc(OC[C@@](C)(N)CC(C)C)c(C(F)F)c3)ccnc2c1` [Example 205, (S)-1-((3-(difluoromethyl)-5-(7-methylquinolin-4-yl)pyridin-2-yl)oxy)-2,4-dimethylpentan-2-amine]: the half-inhibitory concentration (IC50) turned out to be 0.7 nM.

For the compound `CC(C)C[C@@](C)(N)COc1cnc(-c2ccnc3ccccc23)cc1C(F)(F)F` [Example 165, (R)-2,4-dimethyl-1-((6-(quinolin-4-yl)-4-(trifluoromethyl)pyridin-3-yl)oxy)pentan-2-amine], it took 21 nM to reach half-maximal inhibition (IC50).

Turning to `CC(=O)Nc1cc(-c2ccc(OC[C@@](C)(N)CC(C)C)c(OC(F)(F)F)c2)ccn1` [Example 25, (S)—N-(4-(4-((2-amino-2,4-dimethylpentyl)oxy)-3-(trifluoromethoxy)phenyl)pyridin-2-yl)acetamide], the IC50 amounted to 1 nM.

The compound `Cc1cc(-c2ccc(OC[C@@](C)(N)CC(C)C)c(C(F)F)n2)cnn1` [Example 163, (S)-1-((2-(difluoromethyl)-6-(6-methylpyridazin-4-yl)pyridin-3-yl)oxy)-2,4-dimethylpentan-2-amine] returned an IC50 of 1100 nM.

`CC(C)C[C@](C)(N)COc1ccc(-c2ccnc3ccccc23)nc1Cl` [Example 83, (S)-1-((2-chloro-6-(quinolin-4-yl)pyridin-3-yl)oxy)-2,4-dimethylpentan-2-amine] showed an IC50 of 1.8 nM.

Consider `COC(=O)Nc1cc(-c2cc(C(F)F)c(OC[C@@](N)(CF)CC(C)C)cn2)ccn1` [Example 182, (R)-methyl (5-((2-amino-2-(fluoromethyl)-4-methylpentyl)oxy)-4-(difluoromethyl)-[2,4′-bipyridin]-2′-yl)carbamate], for which the 50% inhibitory concentration (IC50) was found to be 8.7 nM.

Turning to `CC(C)C[C@](C)(N)COc1cnc(-c2ccnc(Cl)c2)cc1C(F)F` [Example 147, (S)-1-((2′-chloro-4-(difluoromethyl)-[2,4′-bipyridin]-5-yl)oxy)-2,4-dimethylpentan-2-amine], the IC50 came out at 0.56 nM.

`Cc1nc(-c2ccnc3cc(F)ccc23)ccc1OC[C@@](C)(N)CC(C)C` [Example 137, (S)-1-((6-(7-fluoroquinolin-4-yl)-2-methylpyridin-3-yl)oxy)-2,4-dimethylpentan-2-amine] displayed a 50% inhibitory concentration (IC50) of 27 nM.

`CC(C)C[C@](C)(N)COc1ccc(C2=CCOCC2)cc1C(F)(F)F` [Example 215, (S)-1-(4-(3,6-dihydro-2H-pyran-4-yl)-2-(trifluoromethyl)phenoxy)-2,4-dimethylpentan-2-amine] gave an IC50 of 197 nM.

`Cc1cc(-c2cc(C(F)F)c(OC[C@@](C)(O)CC(C)C)cn2)ccn1` [Example 178, (S)-1-((4-(difluoromethyl)-2′-methyl-[2,4′-bipyridin]-5-yl)oxy)-2,4-dimethylpentan-2-ol] showed a concentration for half-maximal inhibition (IC50) of 150 nM.

Consider `COC(=O)Nc1cc(-c2ccc(OC[C@@](C)(N)CC(C)C)c(C(F)F)n2)ccn1` [Example 117, (S)-methyl (5-((2-amino-2,4-dimethylpentyl)oxy)-6-(difluoromethyl)-[2,4′-bipyridin]-2′-yl)carbamate], for which the midpoint of inhibition, the IC50, lay at 1 nM.

Turning to `CC(C)C[C@](C)(N)COc1ncc(-c2ccnc3ccccc23)cc1C(F)F` [Example 204, (S)-1-((3-(difluoromethyl)-5-(quinolin-4-yl)pyridin-2-yl)oxy)-2,4-dimethylpentan-2-amine], inhibition was half-maximal at 0.23 nM (IC50).

Compound `Cc1cc(-c2ccc(OC[C@@H](N)CC(C)C)c(C#N)c2)ccn1` [Example 15, (S)-2-((2-amino-4-methylpentyl)oxy)-5-(2-methylpyridin-4-yl)benzonitrile] displayed an IC50 of 0.81 nM.

`Cc1cc(-c2ccnc3ccccc23)ncc1OC[C@@](C)(N)CC(C)C` [Example 82, (S)-2,4-dimethyl-1-((4-methyl-6-(quinolin-4-yl)pyridin-3-yl)oxy)pentan-2-amine]: the IC50 stood at 0.85 nM.

Compound `COC(=O)Nc1cc(-c2cc(C(F)(F)F)c(OC[C@@](C)(N)CC(C)C)cn2)ccn1` [Example 146, (S)-methyl (5-((2-amino-2,4-dimethylpentyl)oxy)-4-(trifluoromethyl)-[2,4′-bipyridin]-2′-yl)carbamate] showed a half-maximal inhibitory concentration (IC50) of 0.19 nM.

`COC(=O)Nc1cc(-c2cnc(OC[C@@](C)(N)CC(C)C)c(C(F)(F)F)c2)ccn1` [Example 220, (S)-methyl (6-((2-amino-2,4-dimethylpentyl)oxy)-5-(trifluoromethyl)-[3,4′-bipyridin]-2′-yl)carbamate] showed an IC50 of 0.38 nM.

As for `CC(C)C[C@](C)(N)COc1ccc(-c2ccnc(F)c2F)cc1C(F)(F)F` [Example 42, (S)-1-(4-(2,3-difluoropyridin-4-yl)-2-(trifluoromethyl)phenoxy)-2,4-dimethylpentan-2-amine], half-maximal inhibition (IC50) was put at 3.3 nM.

Take `CC(=O)Nc1cc(-c2ccc(OC[C@@H](N)CC(C)C)c(Cl)c2)ccn1` [Example 8, (S)—N-(4-(4-((2-amino-4-methylpentyl)oxy)-3-chlorophenyl)pyridin-2-yl)acetamide]: 0.53 nM corresponded to half-maximal inhibition (IC50).

Consider `COC(=O)Nc1cc(-c2ccc(OCC3(CC(C)C)CNC3)c(C)n2)ccn1` [Example 108, methyl (5-((3-isobutylazetidin-3-yl)methoxy)-6-methyl-[2,4′-bipyridin]-2′-yl)carbamate], for which the IC50 is 106 nM.

The compound `COC(=O)Nc1cc(-c2ccc(OC[C@](C)(N)CC(C)C)c(C)n2)ccn1` [Example 173, (R)-methyl (5-((2-amino-2,4-dimethylpentyl)oxy)-6-methyl-[2,4′-bipyridin]-2′-yl)carbamate] showed an IC50 of 42 nM.

As to `CC(C)C[C@](C)(N)COc1ncc(-c2ccnc3cc(F)ccc23)cc1Cl` [Example 190, (S)-1-((3-chloro-5-(7-fluoroquinolin-4-yl)pyridin-2-yl)oxy)-2,4-dimethylpentan-2-amine], the IC50 was 1.2 nM.

Consider `CC(=O)Nc1cc(-c2ccc(OC[C@@H](N)CC(C)C)c(C#N)c2)ccn1` [Example 3, (S)—N-(4-(4-((2-amino-4-methylpentyl)oxy)-3-cyanophenyl)pyridin-2-yl)acetamide], for which the concentration for half-maximal inhibition (IC50) was found to be 0.3 nM.

`CC(C)C[C@](C)(N)COc1cnc(-c2ccnc3ccc(F)cc23)cc1Cl` [Example 235, (S)-1-((4-chloro-6-(6-fluoroquinolin-4-yl)pyridin-3-yl)oxy)-2,4-dimethylpentan-2-amine] registered an IC50 of 0.36 nM.

For `CC(C)C[C@](C)(N)COc1ncc(-c2ccnc3ccncc23)cc1C#N` [Example 80, (S)-2-((2-amino-2,4-dimethylpentyl)oxy)-5-(1,6-naphthyridin-4-yl)nicotinonitrile], the IC50 came to 19 nM.

`COC(=O)Nc1cc(-c2cnc(OC[C@@](C)(N)CC(C)C)c(C(F)F)c2)ccn1` [Example 196, (S)-methyl (6-((2-amino-2,4-dimethylpentyl)oxy)-5-(difluoromethyl)-[3,4′-bipyridin]-2′-yl)carbamate] gave an IC50 of 0.2 nM.

Consider `Cc1ccc2c(-c3ccc(OC[C@@](C)(N)CC(C)C)c(C#N)c3)ccnc2c1` [Example 102, (S)-2-((2-amino-2,4-dimethylpentyl)oxy)-5-(7-methylquinolin-4-yl)benzonitrile], for which half-maximal inhibition (IC50) was put at 1.3 nM.

`CC(C)C[C@](C)(N)COc1ccc(-c2ccnc3cc(F)cc(F)c23)cc1C(F)(F)F` [Example 72, (S)-1-(4-(5,7-difluoroquinolin-4-yl)-2-(trifluoromethyl)phenoxy)-2,4-dimethylpentan-2-amine] returned an IC50 of 0.53 nM.

`Cc1cc(-c2ccnc3cc(F)cc(F)c23)cnc1OC[C@@](C)(N)CC(C)C` [Example 224, (S)-1-((5-(5,7-difluoroquinolin-4-yl)-3-methylpyridin-2-yl)oxy)-2,4-dimethylpentan-2-amine] displayed an IC50 of 1.1 nM.

In turn, `CC(=O)Nc1cc(-c2ccc(OC[C@@H](N)CC(C)C)c(OC(F)(F)F)c2)ccn1` [Example 6, (S)—N-(4-(4-((2-amino-4-methylpentyl)oxy)-3-(trifluoromethoxy)phenyl)pyridin-2-yl)acetamide] gave an IC50 of 0.47 nM.

As to `COC(=O)Nc1cc(-c2ccc(OC[C@@](C)(N)CC(C)C)c(C(F)F)c2)ccn1` [Example 24, (S)-methyl (4-(4-((2-amino-2,4-dimethylpentyl)oxy)-3-(difluoromethyl)phenyl)pyridin-2-yl)carbamate], the IC50 worked out at 0.63 nM.
